Laboratory results published in PubChem BioAssay (NCI).
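Each compound was tested at five concentrations against cells in 96-well plates for 48 hours. GI50 = concentration required for 50% inhibition of growth. TGI marks complete inhibition of growth.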

Assays:
Experiment in all cases: growth of human tumour cells (NCI), 48 h
[1] = tested on: 786-0 renal
[2] = tested on: OVCAR-4 ovarian
[3] = tested on: ACHN renal
[4] = tested on: MCF7 breast
[5] = tested on: SN12C renal
[6] = tested on: HT29 colon
[7] = tested on: HL-60(TB) leukemia
[8] = tested on: SF-268 CNS
[9] = tested on: NCI-H226 lung

Structure (SMILES) | TGI [1] | TGI [2] | TGI [3] | TGI [4] | TGI [5] | TGI [6] | TGI [7] | TGI [8] | TGI [9] | GI50 [2] | GI50 [3] | GI50 [5] | GI50 [7]
CCN(CC)c1ccc2cc(-c3nc4ccccc4c(=O)[nH]3)c(=N)oc2c1 | > 100 µM | > 100 µM | > 100 µM | > 100 µM | > 100 µM | > 100 µM | > 100 µM | > 100 µM | > 100 µM |  |  |  | 
CO[C@]1(CN2CCN3CCCC[C@@H]3C2)/C=C/C[C@H](C)[C@@H](C)S(=O)(=O)NC(=O)c2ccc3c(c2)N(C[C@@H]2CC[C@H]21)C[C@@]1(CCCc2cc(Cl)ccc21)CO3 |  | 6.61 µM | 3.9 µM |  | 3.08 µM |  | 0.153 µM |  |  | 1.69 µM | 1.86 µM | 1.6 µM | 0.0297 µM
C/C(=N\Nc1nc2ccccc2[nH]1)c1cc2ccccc2cn1 | 0.743 µM | 2.41 µM | 0.638 µM | 2.31 µM | 1.06 µM | 1.02 µM |  | 1.02 µM | 1.69 µM |  |  |  | 
O=C1c2ccccc2-c2[nH]c3cn[nH]c(=O)c3c21 | > 100 µM | > 100 µM | > 100 µM | > 100 µM | > 100 µM | > 100 µM | > 100 µM | > 100 µM | > 100 µM |  |  |  | 
N#Cc1nc(C#N)n(C(=O)c2ccccc2)c1NC(=O)c1ccccc1 | > 100 µM | > 100 µM | > 100 µM | > 100 µM | > 100 µM | > 100 µM | > 100 µM | > 100 µM | > 100 µM |  |  |  | 
C/C(Nc1ccc(Cl)cc1Cl)=C1/CCOC1=O | > 100 µM | > 100 µM | > 100 µM | > 100 µM | > 100 µM | > 100 µM | > 100 µM | 92.8 µM | > 100 µM |  |  |  | 
O=[N+]([O-])c1ccc(C(Nc2ccccc2)c2ccc3cccnc3c2O)cc1 (stereo unspecified) | 26.1 µM | 47.7 µM | > 100 µM | > 75.6 µM | > 56.2 µM | > 100 µM | 13.4 µM | > 52.7 µM | > 27.7 µM |  |  |  | 
Cc1ccc(/C(O)=C/c2nc3ccc([N+](=O)[O-])cc3nc2/C=C(\O)c2ccc(C)cc2)cc1 | > 100 µM | > 100 µM | > 100 µM | > 100 µM | > 100 µM | > 100 µM | > 100 µM | > 100 µM | > 100 µM |  |  |  | 
CCOP(=O)(OCC)/C(C#N)=C/c1cccn1Cc1ccccc1 | > 100 µM |  | > 100 µM | > 100 µM | > 100 µM | > 100 µM |  | > 100 µM | 51.8 µM |  |  |  | 
CC(C)OC1OC(CO)C(O)CC1n1cc(F)c(=O)[nH]c1=O (stereo unspecified) | > 100 µM | > 100 µM | > 100 µM | > 100 µM | > 100 µM | > 100 µM |  | > 100 µM | > 100 µM |  |  |  | 
CSc1ccc(/C=C2\N=C(c3ccccc3)N(/N=C/c3cc4cc(C)ccc4nc3Cl)C2=O)cc1 | 35.1 µM | 39.3 µM | 35.1 µM | 43.2 µM | 35.6 µM | 62.1 µM | 47.5 µM | 47.6 µM |  |  |  |  | 
Cc1[nH]c(=O)[nH]c(=S)c1C(=O)Nc1cccc2cc3ccccc3cc12 |  | > 100 µM | > 100 µM | > 100 µM | > 100 µM | > 100 µM | > 100 µM | > 100 µM | > 100 µM |  |  |  | 
